# In PubChem BioAssay (NCI):
#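 The compound was tested at five concentrations on cells cultured in 96-well plates, with a 48-hour exposure period. At the GI50, growth is halved. TGI denotes the concentration required for complete inhibition of growth.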
# Key:
# Assay in all cases: DTP human tumour cell line panel, 48 h
# SF-268 CNS = tested on: SF-268 CNS
# SK-MEL-28 melanoma = tested on: SK-MEL-28 melanoma
# SK-MEL-5 melanoma = tested on: SK-MEL-5 melanoma
# CCRF-CEM leukemia = tested on: CCRF-CEM leukemia
# NCI-H23 lung = tested on: NCI-H23 lung
# MOLT-4 leukemia = tested on: MOLT-4 leukemia
# HCT-116 colon = tested on: HCT-116 colon
# IGROV1 ovarian = tested on: IGROV1 ovarian
# MDA-MB-231 breast = tested on: MDA-MB-231 breast
# PC-3 prostate = tested on: PC-3 prostate
# SF-295 CNS = tested on: SF-295 CNS
# LOX IMVI melanoma = tested on: LOX IMVI melanoma
# HS 578T breast = tested on: HS 578T breast
# SK-MEL-2 melanoma = tested on: SK-MEL-2 melanoma
# NCI/ADR-RES ovarian = tested on: NCI/ADR-RES ovarian
# HOP-92 NSCLC = tested on: HOP-92 NSCLC
# MCF7 breast = tested on: MCF7 breast
# BT-549 breast = tested on: BT-549 breast
# MALME-3M melanoma = tested on: MALME-3M melanoma
# COLO 205 colon = tested on: COLO 205 colon
# OVCAR-8 ovarian = tested on: OVCAR-8 ovarian
# HCC-2998 colon = tested on: HCC-2998 colon
# U251 CNS = tested on: U251 CNS
# UACC-62 melanoma = tested on: UACC-62 melanoma
# OVCAR-5 ovarian = tested on: OVCAR-5 ovarian
# DU-145 prostate = tested on: DU-145 prostate
# OVCAR-4 ovarian = tested on: OVCAR-4 ovarian
# RPMI-8226 leukemia = tested on: RPMI-8226 leukemia
# HOP-62 NSCLC = tested on: HOP-62 NSCLC
# NCI-H522 lung = tested on: NCI-H522 lung
# UACC-257 melanoma = tested on: UACC-257 melanoma
# NCI-H460 lung = tested on: NCI-H460 lung
# HT29 colon = tested on: HT29 colon
# ACHN renal = tested on: ACHN renal
# SN12C renal = tested on: SN12C renal
# SR leukemia = tested on: SR leukemia
# SK-OV-3 ovarian = tested on: SK-OV-3 ovarian
# RXF 393 renal = tested on: RXF 393 renal
# HCT-15 colon = tested on: HCT-15 colon
# NCI-H226 lung = tested on: NCI-H226 lung
# CAKI-1 renal = tested on: CAKI-1 renal
# SNB-19 CNS = tested on: SNB-19 CNS
# T-47D breast = tested on: T-47D breast
# KM12 colon = tested on: KM12 colon
# SNB-75 CNS = tested on: SNB-75 CNS
# SF-539 CNS = tested on: SF-539 CNS
# K-562 leukemia = tested on: K-562 leukemia
# 786-0 renal = tested on: 786-0 renal
# A549 NSCLC = tested on: A549 NSCLC
# TK-10 renal = tested on: TK-10 renal
# MDA-MB-435 = tested on: MDA-MB-435
# M14 melanoma = tested on: M14 melanoma
# UO-31 renal = tested on: UO-31 renal
# A498 renal = tested on: A498 renal
# SW-620 colon = tested on: SW-620 colon
compound,measurement,setting,value
CCCc1ccc(S(=O)(=O)N[C@H]2CC[C@H]3[C@@H]4CCc5cc(O)ccc5[C@H]4CC[C@]23C)cc1,GI50,SF-268 CNS,3.44 µM
same,TGI,SF-268 CNS,13.4 µM
same,GI50,SK-MEL-28 melanoma,2.45 µM
same,TGI,SK-MEL-28 melanoma,6.33 µM
same,GI50,SK-MEL-5 melanoma,1.63 µM
same,TGI,SK-MEL-5 melanoma,3.01 µM
same,GI50,CCRF-CEM leukemia,2.72 µM
same,TGI,CCRF-CEM leukemia,12 µM
same,GI50,NCI-H23 lung,3.31 µM
same,TGI,NCI-H23 lung,14.6 µM
same,GI50,MOLT-4 leukemia,2.36 µM
same,TGI,MOLT-4 leukemia,9.18 µM
same,GI50,HCT-116 colon,1.78 µM
same,TGI,HCT-116 colon,3.27 µM
same,GI50,IGROV1 ovarian,3.76 µM
same,TGI,IGROV1 ovarian,14.3 µM
same,GI50,MDA-MB-231 breast,2.29 µM
same,TGI,MDA-MB-231 breast,6.21 µM
same,GI50,PC-3 prostate,2.52 µM
same,TGI,PC-3 prostate,11.7 µM
same,GI50,SF-295 CNS,3.06 µM
same,TGI,SF-295 CNS,10.9 µM
same,GI50,LOX IMVI melanoma,1.72 µM
same,TGI,LOX IMVI melanoma,3.17 µM
same,GI50,HS 578T breast,3.33 µM
same,TGI,HS 578T breast,12.9 µM
same,GI50,SK-MEL-2 melanoma,2.72 µM
same,TGI,SK-MEL-2 melanoma,7.12 µM
same,GI50,NCI/ADR-RES ovarian,2.75 µM
same,TGI,NCI/ADR-RES ovarian,10.6 µM
same,GI50,HOP-92 NSCLC,1.91 µM
same,TGI,HOP-92 NSCLC,5.65 µM
same,GI50,MCF7 breast,2.66 µM
same,TGI,MCF7 breast,7.29 µM
same,GI50,BT-549 breast,2.47 µM
same,TGI,BT-549 breast,5.89 µM
same,GI50,MALME-3M melanoma,2.82 µM
same,TGI,MALME-3M melanoma,8.07 µM
same,GI50,COLO 205 colon,1.84 µM
same,TGI,COLO 205 colon,3.28 µM
same,GI50,OVCAR-8 ovarian,3.29 µM
same,TGI,OVCAR-8 ovarian,13.1 µM
same,GI50,HCC-2998 colon,4 µM
same,TGI,HCC-2998 colon,13.7 µM
same,GI50,U251 CNS,1.95 µM
same,TGI,U251 CNS,4.25 µM
same,GI50,UACC-62 melanoma,1.92 µM
same,TGI,UACC-62 melanoma,4.37 µM
same,GI50,OVCAR-5 ovarian,2.06 µM
same,TGI,OVCAR-5 ovarian,4.44 µM
same,GI50,DU-145 prostate,4.04 µM
same,TGI,DU-145 prostate,14 µM
same,GI50,OVCAR-4 ovarian,2.23 µM
same,TGI,OVCAR-4 ovarian,9.57 µM
same,GI50,RPMI-8226 leukemia,2.9 µM
same,TGI,RPMI-8226 leukemia,10 µM
same,GI50,HOP-62 NSCLC,4.65 µM
same,TGI,HOP-62 NSCLC,15.8 µM
same,GI50,NCI-H522 lung,2.32 µM
same,TGI,NCI-H522 lung,9.09 µM
same,GI50,UACC-257 melanoma,3.83 µM
same,TGI,UACC-257 melanoma,15.7 µM
same,GI50,NCI-H460 lung,2.54 µM
same,TGI,NCI-H460 lung,6.41 µM
same,GI50,HT29 colon,3.19 µM
same,TGI,HT29 colon,10.2 µM
same,GI50,ACHN renal,2.57 µM
same,TGI,ACHN renal,8.06 µM
same,GI50,SN12C renal,1.75 µM
same,TGI,SN12C renal,3.44 µM
same,GI50,SR leukemia,2.53 µM
same,TGI,SR leukemia,8.06 µM
same,GI50,SK-OV-3 ovarian,3.65 µM
same,TGI,SK-OV-3 ovarian,12.4 µM
same,GI50,RXF 393 renal,1.67 µM
same,TGI,RXF 393 renal,4.42 µM
same,GI50,HCT-15 colon,2.26 µM
same,TGI,HCT-15 colon,6.45 µM
same,GI50,NCI-H226 lung,1.57 µM
same,TGI,NCI-H226 lung,3.15 µM
same,GI50,CAKI-1 renal,3.45 µM
same,TGI,CAKI-1 renal,11.9 µM
same,GI50,SNB-19 CNS,4.2 µM
same,TGI,SNB-19 CNS,15.9 µM
same,GI50,T-47D breast,3.54 µM
same,TGI,T-47D breast,10.8 µM
same,GI50,KM12 colon,2.68 µM
same,TGI,KM12 colon,7.81 µM
same,GI50,SNB-75 CNS,2.23 µM
same,TGI,SNB-75 CNS,9.98 µM
same,GI50,SF-539 CNS,2.12 µM
same,TGI,SF-539 CNS,4.46 µM
same,GI50,K-562 leukemia,3.06 µM
same,TGI,K-562 leukemia,12 µM
same,GI50,786-0 renal,3.02 µM
same,TGI,786-0 renal,9.16 µM
same,GI50,A549 NSCLC,3.22 µM
same,TGI,A549 NSCLC,12.8 µM
same,GI50,TK-10 renal,3.8 µM
same,TGI,TK-10 renal,13.7 µM
same,GI50,MDA-MB-435,3.13 µM
same,TGI,MDA-MB-435,11.1 µM
same,GI50,M14 melanoma,3.21 µM
same,TGI,M14 melanoma,10.3 µM
same,GI50,UO-31 renal,2.23 µM
same,TGI,UO-31 renal,8.78 µM
same,GI50,A498 renal,1.78 µM
same,TGI,A498 renal,5.45 µM
same,GI50,SW-620 colon,3.6 µM
same,TGI,SW-620 colon,14.2 µM
